# According to PubChem BioAssay AID2060504 (Molecular Pharmacology Branch, DTP, NCI, 2025):
# Tested on: 636577-100-R-J1-PDC complex spheroid viability
# Experiment: Anticancer human tumor 636577-100-R-J1-PDC patient-derived endometrial adenocarcinoma cell line growth inhibition [GQUAD]
# Details: for IC50: curve of first compound; for viability, T/C: stronger effect = lower value
# Procedure, shortened: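 Multi-cell-type spheroids of tumor cells with HUVEC and mesenchymal stem cells, treated with drug combinations. Concentrations descend in half-log steps from near clinical Cmax, or from 10 microM where Cmax is unknown; viability read-out.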
# 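Also: viability read after seven days of drug exposure.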
# 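For viability, T/C in this document: luminescence signal used as a proxy for viable cells; 100% = DMSO vehicle control wells.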
smiles,measurement,setting,value
CC1COCCN1c1cc(-c2ccnn2C)c2ccnc(-c3ccn[nH]3)c2n1 (configuration not stated) + CN(C)c1ccc(Nc2c3ccc(NC(=O)CCN4CCCC4)cc3nc3cc(NC(=O)CCN4CCCC4)ccc23)cc1,IC50,second compound 0.0316 µM,66.9 nM
same,IC50,second compound 0.1 µM,63.7 nM
same,IC50,second compound 0.316 µM,53.3 nM
same,IC50,second compound 1 µM,32 nM
same,IC50,second compound 3.16 µM,< 31.6 nM
same,IC50,second compound 10 µM,< 31.6 nM
same,"viability, T/C","second compound 0.0316 µM, first compound 0.0316 µM",70%
same,"viability, T/C","second compound 0.0316 µM, first compound 0.1 µM",39%
same,"viability, T/C","second compound 0.0316 µM, first compound 0.316 µM",21.6%
same,"viability, T/C","second compound 0.0316 µM, first compound 1 µM",13.2%
same,"viability, T/C","second compound 0.0316 µM, first compound 3.16 µM",7.12%
same,"viability, T/C","second compound 0.0316 µM, first compound 10 µM",3.43%
same,"viability, T/C","second compound 0.1 µM, first compound 0.0316 µM",67.8%
same,"viability, T/C","second compound 0.1 µM, first compound 0.1 µM",36.9%
same,"viability, T/C","second compound 0.1 µM, first compound 0.316 µM",23.4%
same,"viability, T/C","second compound 0.1 µM, first compound 1 µM",13.1%
same,"viability, T/C","second compound 0.1 µM, first compound 3.16 µM",5.95%
same,"viability, T/C","second compound 0.1 µM, first compound 10 µM",2.75%
same,"viability, T/C","second compound 0.316 µM, first compound 0.0316 µM",62.1%
same,"viability, T/C","second compound 0.316 µM, first compound 0.1 µM",34.5%
same,"viability, T/C","second compound 0.316 µM, first compound 0.316 µM",21.6%
same,"viability, T/C","second compound 0.316 µM, first compound 1 µM",13.4%
same,"viability, T/C","second compound 0.316 µM, first compound 3.16 µM",5%
same,"viability, T/C","second compound 0.316 µM, first compound 10 µM",3.28%
same,"viability, T/C","second compound 1 µM, first compound 0.0316 µM",52%
same,"viability, T/C","second compound 1 µM, first compound 0.1 µM",27.8%
same,"viability, T/C","second compound 1 µM, first compound 0.316 µM",22.7%
same,"viability, T/C","second compound 1 µM, first compound 1 µM",14%
same,"viability, T/C","second compound 1 µM, first compound 3.16 µM",7.85%
same,"viability, T/C","second compound 1 µM, first compound 10 µM",3.23%
same,"viability, T/C","second compound 3.16 µM, first compound 0.0316 µM",30.8%
same,"viability, T/C","second compound 3.16 µM, first compound 0.1 µM",24.2%
same,"viability, T/C","second compound 3.16 µM, first compound 0.316 µM",19.4%
same,"viability, T/C","second compound 3.16 µM, first compound 1 µM",11.3%
same,"viability, T/C","second compound 3.16 µM, first compound 3.16 µM",5.18%
same,"viability, T/C","second compound 3.16 µM, first compound 10 µM",2.8%
same,"viability, T/C","second compound 10 µM, first compound 0.0316 µM",4.8%
same,"viability, T/C","second compound 10 µM, first compound 0.1 µM",3.22%
same,"viability, T/C","second compound 10 µM, first compound 0.316 µM",2.72%
same,"viability, T/C","second compound 10 µM, first compound 1 µM",2.01%
same,"viability, T/C","second compound 10 µM, first compound 3.16 µM",1.02%
same,"viability, T/C","second compound 10 µM, first compound 10 µM",0.62%
